Test results from publication PMC11492034, “The MRGPRX2-substance P pathway regulates mast cell migration” (iScience, 2024).

Assays:
MC progenitors = details: LTB4: ref 38, 40, 42; PGE2: no ref at this clause; cited from earlier work
asthmatic subjects = details: cited from earlier work
neurokinin 1 receptor = details: 100 nM aprepitant, SP 0.03-10, immature mast cells, n=1
Description: Chemotaxis assays were carried out using 8 μm pore ChemoTX™ assay plates (Neuroprobe, Gaithersburg, USA). Cells were first loaded with 5 μM Calcein-AM for 30 mins, 37°C/5% CO2 in cell culture medium prior to being washed and resuspended at a concentration of 1 x 10^6.ml^-1. Where appropriate cells were pre-incubated with Compound A or vehicle control. Chemoattractants were prepared in cell culture medium and placed in the lower chamber. The plate was constructed and 50 μl cell suspension applied to the upper part of the membrane of each well. No chemoattractant and equal chemoattractant on both sides of the chamber were used to control for random cell movement. The plate was incubated for 6 hours 37°C/5% CO2 before analysis of migrated cells, as follows. Cells were removed from above the membrane by pipetting, the membrane was then washed with PBS buffer containing 2mM EDTA and wiped using a rubber filter wiper (Neuroprobe). PBS/EDTA was applied to the upper side of the membrane and the plate incubated for 30 mins at 4°C before again being wiped. The plate was then centrifuged at 500 x g for 5 mins to capture cells attached to the underside of the membrane. […] Total migrated cells were counted as Live/Dead™-/Calcein-AM+/CD117+ cells or Live/Dead™-/Calcein-AM+ cells in each sample. […]

MRGPRX2 [1] = biological target: T1, MRGPRX2 (Homo sapiens, UniProt Q96LB1); details: 15 min; 1 µM (PACAP1-38, PACAP1-27, PAMP9-20, VIP) or 10 µM (CGRP); concentration response 0.01-100 µM, n=1 of a mix of 2 donors
T1 sequence (Q96LB1 whole entry): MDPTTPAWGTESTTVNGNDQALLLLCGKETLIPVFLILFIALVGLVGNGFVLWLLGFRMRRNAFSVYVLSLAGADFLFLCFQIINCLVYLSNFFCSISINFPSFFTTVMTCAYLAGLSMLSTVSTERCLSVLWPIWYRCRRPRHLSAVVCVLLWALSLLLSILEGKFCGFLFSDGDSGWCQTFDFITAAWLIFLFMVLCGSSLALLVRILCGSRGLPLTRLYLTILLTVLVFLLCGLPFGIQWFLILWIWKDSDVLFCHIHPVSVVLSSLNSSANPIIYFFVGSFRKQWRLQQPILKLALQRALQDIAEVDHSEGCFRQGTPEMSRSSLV
Description: Degranulation was assessed by labelling of externalised CD63 (clone H5C6) as previously established[3] in response to substance P (Genscript, Oxford, UK), IgE/anti-IgE, anti-FcεRIα (clone AER37, Biolegend, London, UK) or C3a (CompTech, Tyler, USA). In all cases, cells were washed in PBS prior to incubation with live/dead™ reagent before analysis. […] Fc blocking reagent and antibodies were added, diluted in 1x permeabilisation buffer (BD Bioscience, Winnersh, UK), cells were washed and incubated with goat anti-mouse polyclonal antibodies labelled with PE or APC (Biolegend, London, UK). All cells were analysed on FACSymphony A5 or LSRFostessa instruments, and FlowJo software (BD Bioscience, Winnersh, UK). CD63 externalisation was used as a surrogate for MC degranulation according to established methodology.[52]^,[53]^,[54]
Putative MRGPRX2 ligand activation of MRGPRX2 positive cells.
(A) Gating showing degranulation, as measured by CD63 externalisation (x-axis), vs MRGPRX2 expression (y-
axis) after 15 mins of treatment with labelled agonists at 1µM (PACAP1-38, PACAP1-27, PAMP9-20, VIP) or
Percentage of cells in each quadrant is shown.
(B) Degranulation of mast cells in response to agonists (0.01-100 µM) after 15 minutes of application, as
shown. Data are n=1 of a mix of 2 donors.

MRGPRX2 [2] = biological target: T1, MRGPRX2; details: cited from earlier work

**Q.** Which “effect on MC migration” value (MC progenitors) does the source give for `CCCCC/C=C\C[C@@H](O)/C=C/C=C/C=C\[C@@H](O)CCCC(=O)O` [LTB4] here?
**A.** Its value is “known to attract MC progenitors, recruiting them from the circulation, and lose its effect upon MC maturation”.

**Q.** For `CCCCC[C@H](O)/C=C/[C@H]1[C@H](O)CC(=O)[C@@H]1C/C=C\CCCC(=O)O` [PGE2], which “effect on MC migration” value (MC progenitors) is on record?
**A.** Its value is “more prone to regulating cell movement within the tissue”.

**Q.** For `CSCC[C@H](NC(=O)[C@H](CC(C)C)NC(=O)CNC(=O)[C@H](Cc1ccccc1)NC(=O)[C@H](Cc1ccccc1)NC(=O)[C@H](CCC(N)=O)NC(=O)[C@H](CCC(N)=O)NC(=O)[C@@H]1CCCN1C(=O)[C@H](CCCCN)NC(=O)[C@@H]1CCCN1C(=O)[C@@H](N)CCCN=C(N)N)C(N)=O` [SP], which “bronchoconstriction in asthmatic subjects” value (asthmatic subjects) is on record?
**A.** The value was “does not induce bronchoconstriction”.

**Q.** With `C[C@@H](O[C@H]1OCCN(Cc2n[nH]c(=O)[nH]2)[C@H]1c1ccc(F)cc1)c1cc(C(F)(F)F)cc(C(F)(F)F)c1` [aprepitant] as the compound, how does the “inhibition of SP-induced chemotaxis” value (neurokinin 1 receptor) read?
**A.** The value was “did not”.

**Q.** With CGRP as the compound, how does the “CD63 degranulation, neuropeptide” value (MRGPRX2 [1]) read?
**A.** The value was “minimal effect”.

**Q.** For LL-37, which “binding to MRGPRX2” value (MRGPRX2 [2]) is on record?
**A.** Its value is “binds”.

**Q.** With PAMP-20 as the compound, how does the “binding to MRGPRX2” value (MRGPRX2 [2]) read?
**A.** Its value is “binds”.

**Q.** Which “binding to MRGPRX2” value (MRGPRX2 [2]) does the source give for cortistatin-14 here?
**A.** The value was “binds”.
